The target in assay [1] is His-tagged KRAS G12D protein (Homo sapiens (Human), UniProt P01116, G12D). In words: KRAS G12D TR-FRET Assay. In kind it is binding. An outline of the steps:
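His-tagged KRAS G12D (diluted to 20 nM in pH 7.4 HEPES buffer with 10 mM MgCl2 and 10 μM GDP) was preincubated with titrated compound for 30 min at room temperature. Biotinylated KRPep-2d peptide (diluted to 20 nM) was then added for 1 h, and displacement was monitored by TR-FRET.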
For orientation: Time-resolved FRET reads energy transfer from a long-lived donor to a nearby acceptor.

Assay [2] relates to Phosphorylation of ERK1/2 in AsPC-1 cells. In words: Phospho-ERK1/2 MSD Assay. In kind it is cell-based, human. An outline of the steps: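 Read-out: MSD electrochemiluminescent detection of phosphorylated ERK1/2 in whole-cell lysates, fitted to a 4-parameter logistic curve for IC50. Prior to lysis, AsPC-1 cells (25,000 per well) received a 2 h compound dose-response at 37 °C.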

The target of assay [3] is GDP-bound KRAS protein (aa 1-169), containing both G12D and C118A amino acid substitutions (Homo sapiens (Human), UniProt P01116, C118A/G12D). In words: KRAS G12D Coupled Nucleotide Exchange Assay. In kind it is biochemical.
Sequence of GDP-bound KRAS protein (aa 1-169), containing both G12D and C118A amino acid substitutions (P01116 other isoform, or with tags, fused parts or gaps G12D/C118A): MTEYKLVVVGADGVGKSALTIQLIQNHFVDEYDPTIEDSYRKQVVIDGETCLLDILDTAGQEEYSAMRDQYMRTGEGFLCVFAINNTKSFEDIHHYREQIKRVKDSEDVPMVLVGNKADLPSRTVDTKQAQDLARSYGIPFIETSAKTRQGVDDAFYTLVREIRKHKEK
Another assay relates to AsPC-1 cells. In words: AsPC-1 CTG Assay (CellTiter-Glo cell viability). In kind it is cell-based, human. The conditions noted are these: first value of the cell, read-out: G12D/C/V Cell Proliferation CTG (72 h) AsPC-1. The procedure: AsPC-1 and SW620 CTG Assay Protocols
AsPC-1 (human pancreatic adenocarcinoma; ATCC CRL-1682) or SW620 (human colon adenocarcinoma; ATCC CCL-227) cells were cultured in RPMI 1640 medium containing 10% fetal bovine serum and 1× penicillin/streptomycin/L-glutamine. Cells were seeded in 384-well plates at a density of 3.33E+04 cells/mL and incubated at 37° C., 5% CO2, overnight. Serially-diluted compound or DMSO was added to the cells, and plates were incubated at 37° C., 5% CO2 for 72 h. Cell viability was measured using a CellTiter-Glo® Luminescent Cell Viability Assay kit (Promega) according to the manufacturer's protocol. The luminescence signal of treated samples was normalized to DMSO control, and data were analyzed using a 4-parameter logistic model to calculate IC50 values.

Setting [4] is: read-out: KRAS G12D Binding IC50.
Where [5] appears, read: 2 h, read-out: 2 h p-ERK (AsPC-1 cells), IC50.
The mark [6] stands for this setting: read-out: KRAS G12D Coupled Exchange IC50.
Setting [7] is: Homo sapiens, ASPC1, 2 h, read-out: 2 h p-ERK (AsPC-1 cells), IC50.
Where [8] appears, read: Homo sapiens, ASPC1, 72 h, AsPC-1, 72 h.
[9] abbreviates: TR-FRET, read-out: KRAS G12D Binding.
Where [10] appears, read: Homo sapiens, ASPC1, 2 h, read-out: 2 h p-ERK (AsPC-1 cells).
Where [11] appears, read: 2 hours compound pre-incubation, read-out: KRAS G12D Coupled Exchange.
Where [12] appears, read: Homo sapiens, ASPC1, 72 h, AsPC-1 cells (G12D), 72 h.

Where a name gives a salt, the structure may show the parent alone. Read-outs that look alike come from different tables or passages of the source.

Sequence of His-tagged KRAS G12D protein (P01116 other isoform, or with tags, fused parts or gaps G12D): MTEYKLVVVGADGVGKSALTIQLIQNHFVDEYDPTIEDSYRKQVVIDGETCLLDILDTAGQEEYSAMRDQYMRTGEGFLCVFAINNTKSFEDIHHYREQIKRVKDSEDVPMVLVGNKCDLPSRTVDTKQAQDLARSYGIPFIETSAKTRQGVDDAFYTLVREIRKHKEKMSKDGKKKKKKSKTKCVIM

As to `Cc1c2ncc3c(nc(OC[C@@]45CCCN4C[C@H](F)C5)nc13)N1CCOC[C@H](C1)OC(=O)OCCCc1c(Cl)cc3[nH]ncc3c1-2` (atropisomer, axis not shown) [Example 341, (26S)-18-chloro-4-(((2R,7aS)-2-fluorotetrahydro-1H-pyrrolo[1,2-a]pyrrol-7a(5H)-yl)methoxy)-32-methyl-23,25,28-trioxa-1,3,5,9,14,15-hexaazahexacyclo[24.4.1.1~6,10~.0~2,7~.0~11,19~.0~12,16~]dotriaconta-2,4,6,8,10(32),11,13,16,18-nonaen-24-one], the IC50 came to 10 nM in assay [1] (setting [4]); 65.5 nM in assay [2] (setting [5]); 6 nM in assay [3] (setting [6]); 889 nM with AsPC-1 cells (AsPC-1, 72 h).
Taken in the same sequence, the figures for `Cc1c2ncc3c(nc(OC[C@@]45CCCN4C[C@H](F)C5)nc13)N1CCOC[C@H](C1)OC(=O)OCCCc1c(Cl)cc3[nH]ncc3c1-2` (atropisomer, axis not shown) [Example 342, (26S)-18-chloro-4-(((2R,7aS)-2-fluorotetrahydro-1H-pyrrolo[1,2-a]pyrrol-7a(5H)-yl)methoxy)-32-methyl-23,25,28-trioxa-1,3,5,9,14,15-hexaazahexacyclo[24.4.1.1~6,10~.0~2,7~.0~11,19~.0~12,16~]dotriaconta-2,4,6,8,10(32),11,13,16,18-nonaen-24-one] were 47 nM, 332 nM, 23 nM and 3060 nM.
For the molecule `C[C@@]12CCCN(C1)c1nc(OC[C@@]34CCCN3C[C@H](F)C4)nc3c(F)c(ncc13)-c1cccc3ccc(F)c(c13)CCC(F)C(=O)N2` (mixture of isomers) [Example 11], the IC50 stood at 12 nM in assay [1] (setting [4]), 155 nM in assay [2] (setting [7]), 8 nM in assay [3] (setting [6]) and 1050 nM in the assay on AsPC-1 cells (setting [8]).
Consider `C[C@@]12CCCN(C1)c1nc(OC[C@@]34CCCN3C[C@H](F)C4)nc3c(F)c(ccc13)-c1cc(O)cc3ccc(F)c(c13)CCC(F)C(=O)N2` (mixture of isomers) [Example 17, 2,2,2-trifluoroacetate salt], for which the IC50 is 11 nM in assay [1] (setting [4]), 46 nM in assay [2] (setting [7]), 7 nM in assay [3] (setting [6]) and 405 nM in the assay with AsPC-1 cells (setting [8]).
As to `Cc1cc2[nH]ncc2c2c1CCCCC(=O)N1CC[C@@H]3CCN(C[C@@H]31)c1nc(OC[C@@]34CCCN3C[C@H](F)C4)nc3c(F)c-2ncc13` (mixture of isomers) [Example 63], the IC50 stood at 9 nM in assay [1] (setting [4]), 59 nM in assay [2] (setting [7]), 2 nM in assay [3] (setting [6]) and 460 nM with AsPC-1 cells (setting [8]).
With `CC12CCCN(C1)c1nc(OC[C@@]34CCCN3C[C@H](F)C4)nc3c(F)c(ncc13)-c1cccc3ccc(F)c(c13)CCOC(=O)N2` (mixture of isomers) [Example 76], the IC50 in assay [1] (setting [4]) stood at 15 nM; in assay [2] (setting [7]), 820 nM; in assay [3] (setting [6]) it was 9 nM; in the assay on AsPC-1 cells (setting [8]) it was 1710 nM.
Taken in the same sequence, the figures for `O=C1OC[C@H]2C[C@@H]2c2c(Cl)cc3[nH]ncc3c2-c2ncc3c(nc(OC[C@@]45CCCN4C[C@H](F)C5)nc3c2F)N2CCC[C@H](C2)O1` (mixture of isomers) [Example 113] were 10 nM, 109 nM, 3 nM and 1180 nM.
Taken in the same sequence, the figures for `O=C1N[C@@H]2CCCCN(C2)c2nc(OC[C@@]34CCCN3C[C@H](F)C4)nc3c(F)c(ncc23)-c2c(c(Cl)cc3[nH]ncc23)CCCC1F` (mixture of isomers) [Example 161] were 6 nM, 19.8 nM, 4 nM and 225 nM.
In the case of `O=C1CCCCc2c(Cl)cc3[nH]ncc3c2-c2ncc3c(nc(OC[C@@]45CCCN4C[C@H](F)C5)nc3c2F)N2CCOCC(C1)C2` (mixture of isomers) [Example 230], the IC50 in assay [1] (setting [4]) was determined as 12 nM; in assay [2] (setting [7]), 95.1 nM; in assay [3] (setting [6]) it was 9 nM; in the assay on AsPC-1 cells (setting [8]) it was 174 nM.
Consider `CC12COCCN(C1)c1nc(OC[C@@]34CCCN3C[C@H](F)C4)nc3c(F)c(ncc13)-c1c(c(Cl)cc3[nH]ncc13)CCCc1nc2no1` (mixture of isomers) [Example 379], for which the IC50 turned out to be 9 nM in assay [1] (setting [9]), 85.3 nM in assay [2] (setting [10]), 3 nM in assay [3] (setting [11]) and 404 nM in the assay on AsPC-1 cells (setting [12]).
As for `Fc1c2ncc3c(nc(OC[C@@]45CCCN4C[C@H](F)C5)nc13)N1CCCCC(C1)c1noc(n1)CCCc1c(Cl)cc3[nH]ncc3c1-2` (mixture of isomers) [Example 382], the IC50 was 5 nM in assay [1] (setting [9]), 16.8 nM in assay [2] (setting [10]), 3 nM in assay [3] (setting [11]) and 1480 nM in the assay with AsPC-1 cells (setting [12]).
`O=C1CCCCc2c(Cl)cc3[nH]ncc3c2-c2ncc3c(nc(OC[C@@]45CCCN4C[C@H](F)C5)nc3c2F)N2CCOCC(C2)C1O` (mixture of isomers) [Example 384]: the IC50 amounted to 10 nM in assay [1] (setting [9]), 22.3 nM in assay [2] (setting [10]), 6 nM in assay [3] (setting [11]) and 109 nM with AsPC-1 cells (setting [12]).
Taken in the same sequence, the figures for `OC1CCCCc2c(Cl)cc3[nH]ncc3c2-c2ncc3c(nc(OC[C@@]45CCCN4C[C@H](F)C5)nc3c2F)N2CCC[C@@H](C1)C2` (mixture of isomers) [Example 385, bis(2,2,2-trifluoroacetate) salt] were 31 nM, 137 nM, 16 nM and 211 nM.
For `Cc1cc2[nH]ncc2c2c1CCCOC(=O)O[C@H]1CN(CC[C@H]1F)c1nc(OC[C@@]34CCCN3C[C@H](F)C4)nc3c(F)c-2ncc13` (racemic) [Example 93], the IC50 in assay [1] (setting [4]) is 14 nM; in assay [2] (setting [7]) it was 180 nM; in assay [3] (setting [6]) it was 5 nM; in the assay with AsPC-1 cells (setting [8]), 1250 nM.
Take `O=C1CCCCc2c(Cl)cc3[nH]ncc3c2-c2ncc3c(nc(OC[C@@]45CCCN4C[C@H](F)C5)nc3c2F)N2CCC3CN1[C@H]3C2` (mixture of isomers) [Example 164]: the IC50 in assay [1] (setting [4]) was found to be 10 nM; in assay [2] (setting [7]), 236 nM; in assay [3] (setting [6]), 7 nM; in the assay on AsPC-1 cells (setting [8]), 3100 nM.
Taken in the same sequence, the figures for `O=C1CCCCc2c(Cl)cc3[nH]ncc3c2-c2ncc3c(nc(OC[C@@]45CCCN4C[C@H](F)C5)nc3c2F)N2C[C@@H](O)C[C@H](C2)N1` (racemic) [Example 275, (17R,19S)-9-chloro-30-fluoro-24-(((2R,7aS)-2-fluorotetrahydro-1H-pyrrolo[1,2-a]pyrrol-7a(5H)-yl)methoxy)-19-hydroxy-5,6,16,21,23,25,29-heptaazahexacyclo[24.3.1.1~17,21~.0~2,10~.0~3,7~.0~22,27~]hentriaconta-1(30),2,4,7,9,22,24,26,28-nonaen-15-one] were 6 nM, 53.1 nM, 3 nM and 778 nM.
For `O=C1N[C@@H]2CC[C@H](O)CN(C2)c2nc(OC[C@@]34CCCN3C[C@H](F)C4)nc3c(F)c(ncc23)-c2c(c(Cl)cc3[nH]ncc23)CCCO1` (racemic) [Example 282, (26R,29S)-18-chloro-32-fluoro-4-(((2R,7aS)-2-fluorotetrahydro-1H-pyrrolo[1,2-a]pyrrol-7a(5H)-yl)methoxy)-29-hydroxy-23-oxa-1,3,5,9,14,15,25-heptaazahexacyclo[24.4.1.1~6,10~.0~2,7~.0~11,19~.0~12,16~]dotriaconta-2,4,6(32),7,9,11,13,16,18-nonaen-24-one], the IC50 was found to be 7 nM in assay [1] (setting [4]), 133 nM in assay [2] (setting [7]), 3 nM in assay [3] (setting [6]) and 1190 nM with AsPC-1 cells (setting [8]).
In the case of `Cc1cc2[nH]ncc2c2c1/C=C\COC(=O)O[C@@H]1CCCN(C1)c1nc(OC[C@@]34CCCN3C[C@H](F)C4)nc3c(F)c-2ncc13` (single isomer, unassigned) [Example 123], the IC50 in assay [1] (setting [4]) was 8 nM; in assay [2] (setting [7]), 104 nM; in assay [3] (setting [6]) it was 4 nM; in the assay with AsPC-1 cells (setting [8]) it was 650 nM.
For `Fc1c2ncc3c(nc(OC[C@@]45CCCN4C[C@H](F)C5)nc13)N1CCOC[C@H](COCCCCc3c(Cl)cc4[nH]ncc4c3-2)C1` (single isomer, unassigned) [Example 136] the same measures were 7 nM, 77 nM, 3 nM and 670 nM.

Values taken from patent US20240294551A1 (AMGEN INC., priority 2022, published 2024).
